Experimental data as given in patent US8952024B2, “Herbicidal pyrimidone derivatives” (E I du Pont de Nemours and Company, priority 2009, dated 2015).
Where two headings read alike, the source gives them in different places.

Assays:
Assay type in all cases: in vivo
[1] = system: morningglory (Ipomoea coccinea); test: Test B pre-/postemergence plant response
Outline: (§1)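 Response scores were assigned visually after 13 to 15 days in a greenhouse, comparing treated pots with controls on a 0–100 scale where 100 denotes complete control. Preemergence treatments went onto freshly seeded loam/sand soil; postemergence treatments onto plants 2 to 18 cm tall.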

[2] = system: pigweed (Amaranthus retroflexus); test: Test B pre-/postemergence plant response; conditions: for pest or weed control at 16 g/ha: 16 g ai/ha; for pest or weed control at 16 g/ha / pest or weed control at 31 g/ha / pest or weed control at 62 g/ha: read-out: Plant response rating, Pigweed; for pest or weed control at 31 g/ha: 31 g ai/ha; for pest or weed control at 62 g/ha: 62 g ai/ha
Outline: as §1

[3] = system: wheat (Triticum aestivum); test: Test B pre-/postemergence plant response; conditions: for plant injury at 31 g/ha: 31 g ai/ha; for plant injury at 62 g/ha: 62 g ai/ha
Outline: as §1

[4] = system: green foxtail (Setaria viridis); test: Test B pre-/postemergence plant response; conditions: for pest or weed control at 16 g/ha: 16 g ai/ha; for pest or weed control at 16 g/ha / pest or weed control at 31 g/ha / pest or weed control at 62 g/ha: read-out: Plant response rating, Foxtail, Green; for pest or weed control at 31 g/ha: 31 g ai/ha; for pest or weed control at 62 g/ha: 62 g ai/ha
Outline: as §1

[5] = system: morningglory (Ipomoea spp.); test: Test A pre-/postemergence plant response; conditions: Ipomoea, 240 h; for pest or weed control at 125 g/ha: 125 g ai/ha; for pest or weed control at 500 g/ha: 500 g ai/ha
Outline: (§2)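 Seeds planted in loam soil/sand blend; test chemicals in non-phytotoxic solvent mixture with surfactant applied as directed soil spray preemergence and, concurrently, postemergence to plants 2–10 cm tall at one- to two-leaf stage. Greenhouse ~10 days; visual injury vs untreated controls, 0 (no effect) to 100 (complete control).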

[6] = system: velvetleaf (Abutilon theophrasti); test: Test A pre-/postemergence plant response; conditions: Abutilon theophrasti, 240 h; for pest or weed control at 125 g/ha: 125 g ai/ha; for pest or weed control at 500 g/ha: 500 g ai/ha
Outline: as §2

[7] = system: large crabgrass (Digitaria sanguinalis); test: Test A pre-/postemergence plant response; conditions: Digitaria sanguinalis, 240 h; for pest or weed control at 125 g/ha: 125 g ai/ha; for pest or weed control at 500 g/ha: 500 g ai/ha
Outline: as §2

[8] = system: wheat (Triticum aestivum); test: Test A pre-/postemergence plant response; conditions: Triticum aestivum, 240 h; for plant injury at 125 g/ha: 125 g ai/ha; for plant injury at 500 g/ha: 500 g ai/ha
Outline: as §2

[9] = Preemergence, 125 g ai/ha, 0 to 100 scale
[10] = Amaranthus retroflexus, pre-emergence, Preemergence, scale 0 to 100 (0 no effect, 100 complete control)
[11] = Triticum aestivum, pre-emergence, Preemergence, scale 0 to 100 (0 no effect, 100 complete control), read-out: Plant response rating, Wheat
[12] = Setaria viridis, pre-emergence, Preemergence, scale 0 to 100 (0 no effect, 100 complete control)

## O=C1CCCC(O)=C1C(=O)c1cnc(-c2ccccc2)n(-c2ccccc2)c1=O [Compound 2, 5-[(2-hydroxy-6-oxo-1-cyclohexen-1-yl)carbonyl]-2,3-diphenyl-4(3H)-pyrimidinone]
[1]; Ipomoea, post-emergence, Postemergence, 125 g ai/ha, visual rating after 13 to 15 days, scale 0 (no effect) to 100 (complete control)
  pest or weed control at 125 g/ha: 95%
[1]; Ipomoea, pre-emergence, Preemergence, 16 g ai/ha, scale 0 to 100 (0 no effect, 100 complete control), read-out: Plant response rating, Morningglory
  pest or weed control at 16 g/ha: 0%
[1]; Ipomoea, pre-emergence, Preemergence, 31 g ai/ha, scale 0 to 100 (0 no effect, 100 complete control), read-out: Plant response rating, Morningglory
  pest or weed control at 31 g/ha: 0%
[1]; Ipomoea, pre-emergence, Preemergence, 62 g ai/ha, scale 0 to 100, 0 no effect, 100 complete control, read-out: Plant response rating, Morningglory
  pest or weed control at 62 g/ha: 20%
[1]; [9]
  Morningglory plant response rating: 75
[2]; Amaranthus retroflexus, post-emergence, Postemergence, 0 to 100 scale
  pest or weed control at 16 g/ha: 70%
[2]; Amaranthus retroflexus, post-emergence, Postemergence, scale 0 to 100 (0 no effect, 100 complete control)
  pest or weed control at 31 g/ha: 85%
[2]; Amaranthus retroflexus, post-emergence, Postemergence, scale 0 (no effect) to 100 (complete control), 13 to 15 days
  pest or weed control at 62 g/ha: 90%
[2]; Amaranthus retroflexus, post-emergence, Postemergence, 125 g ai/ha, visual rating after 13 to 15 days, scale 0 (no effect) to 100 (complete control)
  pest or weed control at 125 g/ha: 95%
[2]; [10]
  pest or weed control at 16 g/ha: 98%
  pest or weed control at 31 g/ha: 100%
  pest or weed control at 62 g/ha: 100%
[2]; [9]
  Pigweed plant response rating: 100
[3]; [9]
  Wheat plant response rating: 0
[3]; Triticum aestivum, post-emergence, 16 g ai/ha, Postemergence, 0 to 100 scale, read-out: Plant response rating, Wheat
  plant injury at 16 g/ha: 0%
[3]; Triticum aestivum, post-emergence, Postemergence, scale 0 to 100 (0 no effect, 100 complete control), read-out: Plant response rating, Wheat
  plant injury at 31 g/ha: 5%
[3]; Triticum aestivum, post-emergence, Postemergence, scale 0 (no effect) to 100 (complete control), 13 to 15 days, read-out: Plant response rating, Wheat
  plant injury at 62 g/ha: 10%
[3]; Triticum aestivum, post-emergence, Postemergence, 125 g ai/ha, visual rating after 13 to 15 days, scale 0 (no effect) to 100 (complete control)
  plant injury at 125 g/ha: 20%
[3]; [11]
  plant injury at 31 g/ha: 0%
  plant injury at 62 g/ha: 0%
[4]; [9]
  Foxtail, Green plant response rating: 60
[4]; Setaria viridis, post-emergence, Postemergence, 0 to 100 scale
  pest or weed control at 16 g/ha: 50%
[4]; Setaria viridis, post-emergence, Postemergence, scale 0 to 100 (0 no effect, 100 complete control)
  pest or weed control at 31 g/ha: 75%
[4]; Setaria viridis, post-emergence, Postemergence, scale 0 (no effect) to 100 (complete control), 13 to 15 days
  pest or weed control at 62 g/ha: 90%
[4]; Setaria viridis, post-emergence, Postemergence, 125 g ai/ha, visual rating after 13 to 15 days, scale 0 (no effect) to 100 (complete control)
  pest or weed control at 125 g/ha: 100%
[4]; [12]
  pest or weed control at 16 g/ha: 0%
  pest or weed control at 31 g/ha: 0%
[4]; Setaria viridis, pre-emergence, Preemergence, scale 0 to 100, 0 no effect, 100 complete control
  pest or weed control at 62 g/ha: 5%
[5]; post-emergence, Postemergence, visual injury, 0 to 100 scale (0 no effect, 100 complete control), approx. ten days, read-out: Morningglory plant response rating
  pest or weed control at 125 g/ha: 90%
[5]; post-emergence, Postemergence, 0 to 100 scale, 0 = no effect, 100 = complete control, approx. ten days, read-out: Plant response rating, Morningglory
  pest or weed control at 500 g/ha: 100%
[5]; pre-emergence, Preemergence, 0 to 100 scale, 0 = no effect, 100 = complete control, read-out: Plant response rating, Morningglory
  pest or weed control at 125 g/ha: 60%
[5]; pre-emergence, Preemergence, visual injury, 0 to 100 scale (0 no effect, 100 complete control), approx. ten days, read-out: Plant response rating, Morningglory
  pest or weed control at 500 g/ha: 90%
[6]; post-emergence, Postemergence, visual injury, 0 to 100 scale (0 no effect, 100 complete control), approx. ten days, read-out: Velvetleaf plant response rating
  pest or weed control at 125 g/ha: 100%
[6]; post-emergence, Postemergence, 0 to 100 scale, 0 = no effect, 100 = complete control, approx. ten days, read-out: Plant response rating, Velvetleaf
  pest or weed control at 500 g/ha: 100%
[6]; pre-emergence, Preemergence, 0 to 100 scale, 0 = no effect, 100 = complete control, read-out: Plant response rating, Velvetleaf
  pest or weed control at 125 g/ha: 60%
[6]; pre-emergence, Preemergence, visual injury, 0 to 100 scale (0 no effect, 100 complete control), approx. ten days, read-out: Plant response rating, Velvetleaf
  pest or weed control at 500 g/ha: 100%
[7]; post-emergence, Postemergence, visual injury, 0 to 100 scale (0 no effect, 100 complete control), approx. ten days, read-out: Crabgrass, Large plant response rating
  pest or weed control at 125 g/ha: 90%
[7]; post-emergence, Postemergence, 0 to 100 scale, 0 = no effect, 100 = complete control, approx. ten days, read-out: Plant response rating, Crabgrass, Large
  pest or weed control at 500 g/ha: 100%
[7]; pre-emergence, Preemergence, 0 to 100 scale, 0 = no effect, 100 = complete control, read-out: Plant response rating, Crabgrass, Large
  pest or weed control at 125 g/ha: 80%
[7]; pre-emergence, Preemergence, visual injury, 0 to 100 scale (0 no effect, 100 complete control), approx. ten days, read-out: Plant response rating, Crabgrass, Large
  pest or weed control at 500 g/ha: 100%
[8]; post-emergence, Postemergence, visual injury, 0 to 100 scale (0 no effect, 100 complete control), approx. ten days, read-out: Wheat plant response rating
  plant injury at 125 g/ha: 0%
[8]; post-emergence, Postemergence, 0 to 100 scale, 0 = no effect, 100 = complete control, approx. ten days, read-out: Plant response rating, Wheat
  plant injury at 500 g/ha: 20%
[8]; pre-emergence, Preemergence, 0 to 100 scale, 0 = no effect, 100 = complete control, read-out: Plant response rating, Wheat
  plant injury at 125 g/ha: 0%
[8]; pre-emergence, Preemergence, visual injury, 0 to 100 scale (0 no effect, 100 complete control), approx. ten days, read-out: Plant response rating, Wheat
  plant injury at 500 g/ha: 0%
